These results are taken from ChEMBL document CHEMBL5230129, “Antibacterial activities with the structure-activity relationship of coumarin derivatives” (2020).

Common to all, as to format: functional
The test system of assay [1] is Staphylococcus aureus. Put plainly: Antibacterial activity against Staphylococcus aureus assessed as inhibition of bacterial growth by broth dilution assay. (In broth dilution the organism is exposed to a series of concentrations in liquid medium.)
Assay [2] has as its system Bacillus subtilis. Put plainly: Antibacterial activity against Bacillus subtilis assessed as inhibition of bacterial growth by broth dilution assay.
Assay [3] deals with Staphylococcus aureus. Nature of the assay: Antibacterial activity against Staphylococcus aureus MTCC 96 assessed as inhibition of bacterial growth incubated for 18 to 20 hrs by broth microdilution assay. As to conditions: time 18-20 hrs.
Assay [4] deals with Escherichia coli. Put plainly: Antibacterial activity against Escherichia coli MTCC 443 assessed as inhibition of bacterial growth incubated for 18 to 20 hrs by broth microdilution assay. As to conditions: time 18-20 hrs.
Assay [5] relates to Escherichia coli. Put plainly: Antibacterial activity against Escherichia coli ATCC 8739 assessed as inhibition of bacterial growth incubated for 24 hrs by microbroth dilution assay.
Assay [6] deals with Enterococcus faecalis. Put plainly: Antibacterial activity against Enterococcus faecalis PCM 2673 assessed as inhibition of bacterial growth incubated for 24 hrs by microbroth dilution assay.
Assay [7] concerns Bacillus subtilis. Nature of the assay: Antibacterial activity against Bacillus subtilis assessed as zone of inhibition incubated for 3 days by cup plate agar diffusion assay. As to conditions: time 3 day. (In general: In agar diffusion tests the substance spreads into inoculated agar from a disc or well.)
The test system of assay [8] is Staphylococcus aureus. Nature of the assay: Antibacterial activity against Staphylococcus aureus assessed as zone of inhibition incubated for 3 days by cup plate agar diffusion assay. As to conditions: time 3 day.
The subject of assay [9] is Pseudomonas aeruginosa. Nature of the assay: Antibacterial activity against Pseudomonas aeruginosa assessed as zone of inhibition incubated for 3 days by cup plate agar diffusion assay. As to conditions: time 3 day.
Assay [10] has as its system Escherichia coli. Put plainly: Antibacterial activity against Escherichia coli assessed as zone of inhibition incubated for 3 days by cup plate agar diffusion assay. As to conditions: time 3 day.
For assay [11], the system named is Escherichia coli. Put plainly: Antibacterial activity against Escherichia coli 1411 assessed as inhibition of bacterial growth incubated for 24 hrs by two-fold serial dilution method.
Assay [12] has as its system Escherichia coli. Nature of the assay: Antibacterial activity against Escherichia coli SM1411 assessed as inhibition of bacterial growth incubated for 24 hrs by two-fold serial dilution method.
The test system of assay [13] is Sphingomonas paucimobilis. Nature of the assay: Antibacterial activity against Flavobacterium devorans ATCC 10829 assessed as inhibition of bacterial growth incubated for 24 hrs by serial twofold dilution assay.
Assay [14] has as its system Escherichia coli. Put plainly: Antibacterial activity against Escherichia coli NCIM 2256 assessed as inhibition of bacterial growth incubated for 24 hrs by serial twofold dilution assay.
The test system of assay [15] is Pseudomonas fluorescens. Nature of the assay: Antibacterial activity against Pseudomonas fluorescens NCIM 2173 assessed as inhibition of bacterial growth incubated for 24 hrs by serial twofold dilution assay.
In assay [16] the test system is Pseudomonas aeruginosa. Nature of the assay: Antibacterial activity against Pseudomonas aeruginosa ATCC 27853 assessed as zone of inhibition incubated for 24 hrs by paper disk method.
The test system of assay [17] is Escherichia coli. Put plainly: Antibacterial activity against Escherichia coli ATCC 25922 assessed as zone of inhibition incubated for 24 hrs by paper disk method.
Assay [18] concerns Pseudomonas. Put plainly: Antibacterial activity against Pseudomonas assessed as zone of inhibition.
Assay [19] has as its system Staphylococcus aureus. Nature of the assay: Antibacterial activity against Staphylococcus aureus assessed as inhibition of bacterial growth by broth micro dilution assay.
Assay [20] concerns Bacillus. Nature of the assay: Antibacterial activity against Bacillus assessed as inhibition of bacterial growth by broth micro dilution assay.
The test system of assay [21] is Escherichia coli. Nature of the assay: Antibacterial activity against Escherichia coli assessed as inhibition of bacterial growth by broth micro dilution assay.

Molecules are shown by their SMILES. ≈ marks a conversion by molar mass, not a printed value.

What is called MIC is the lowest concentration found to suppress growth.

Turning to `Cc1ccc2cc(-c3cc4cc(Br)ccc4oc3=O)oc2c1`, the MIC in assay [1] was found to be 3.12 µg/mL (≈ 8.78 µM); in assay [2] it was 0.2 µg/mL (≈ 0.563 µM).
For `Cc1cc(=O)oc2cc(OC(=O)CNC3N=C(c4ccc(F)cc4)C=C(c4ccc(Cl)cc4)S3)c([N+](=O)[O-])cc12` (stereo not drawn), the MIC in [3] came out at 250 µg/mL (≈ 431 µM); in [4], 50 µg/mL (≈ 86.2 µM).
Consider `O=c1cc(OCc2cn(-c3ccccc3)nn2)c2ccccc2o1`, for which the figures for the MIC in [5] and in assay [6] were 1600 µg/mL (≈ 5010 µM) and 50 µg/mL (≈ 157 µM), respectively.
As for `Cc1cc(=O)oc2c(C(=O)/C=C/c3ccc(Cl)cc3)c(OCc3cnnn3Cc3ccccc3)ccc12`, the “inhibition zone (IZ)” value is 10 mm in assay [7], 25 mm in assay [8], 8 mm in [9] and 23 mm in assay [10].
With `COc1ccc(-n2cc(COc3cc(=O)oc4ccccc34)nn2)cc1F`, the MIC is 200 µg/mL (≈ 544 µM) in assay [5] and 100 µg/mL (≈ 272 µM) in assay [6].
For the molecule `COc1ccc(/C=C/C(=O)c2c(OCc3cnnn3Cc3ccccc3)ccc3c(C)cc(=O)oc23)cc1OC`, the “inhibition zone (IZ)” value in assay [7] stood at 13 mm; in [8] it was 32 mm; in [9] it was 11 mm; in assay [10] it was 31 mm.
On to `COc1cc(C2CC(c3cc4ccccc4oc3=O)=NN2)ccc1O` (stereo not drawn), for which the MIC in [11] and in [12] was 14 µg/mL (≈ 41.6 µM) each time.
For the molecule `O=c1oc2ccccc2cc1C1=NNC(c2ccc(Br)cc2)C1` (stereo not drawn), the MIC in assay [11] and in assay [12] was more than 70 µg/mL in each case.
For `Cc1cc(OCc2cn(Cc3ccc([N+](=O)[O-])cc3)nn2)cc2oc(=O)ccc12`, the figures for the MIC in assay [13], in assay [14] and in assay [15] were 16 µg/mL (≈ 40.8 µM), 2 µg/mL (≈ 5.1 µM) and 2 µg/mL (≈ 5.1 µM), respectively.
On to `C[C@@H](NC(=O)COc1cc(=O)oc2ccccc12)c1ccccc1`, for which the “inhibition zone (IZ)” value in assay [16] is 10 mm; in assay [17] it was 12 mm.
Turning to `O=c1cc(-c2nc3ccccc3[nH]2)c2ccc3ccccc3c2o1`, the inhibition zone (IZ) in [18] turned out to be 4.2 mm.
For `Cc1cc(=O)oc2cc(OC(=O)CNC3N=C(c4ccc(F)cc4)C=C(c4cccc(Br)c4)S3)c([N+](=O)[O-])cc12` (stereo not drawn), the MIC is 100 µg/mL (≈ 160 µM) in assay [3] and 500 µg/mL (≈ 801 µM) in [4].
`COc1cc(/C=C/C(=O)c2c(OCc3cnnn3Cc3ccccc3)ccc3c(C)cc(=O)oc23)cc(OC)c1OC`: the “inhibition zone (IZ)” value came out at 15 mm in [7], 35 mm in assay [8], 14 mm in [9] and 33 mm in assay [10].
With `O=C(COc1cc(=O)oc2ccccc12)N(c1ccccc1)c1ccccc1`, the “inhibition zone (IZ)” value in [16] turned out to be 12 mm; in assay [17], 10 mm.
As to `Cc1ccc2c(-c3nc4ccccc4[nH]3)cc(=O)oc2c1`, the inhibition zone (IZ) in [18] stood at 4.1 mm.
Regarding `Cc1ccc2oc(-c3cc4ccccc4oc3=O)cc2c1`, the MIC was 0.2 µg/mL (≈ 0.724 µM) in [1] and 0.4 µg/mL (≈ 1.45 µM) in assay [2].
Regarding `O=c1cc(OCc2cn(-c3cccc([N+](=O)[O-])c3)nn2)c2ccccc2o1`, the figures for the MIC in assay [5] and in assay [6] were 1600 µg/mL (≈ 4390 µM) and 400 µg/mL (≈ 1100 µM), respectively.
For `COc1ccccc1-n1cc(COc2cc(=O)oc3ccccc23)nn1`, the MIC in assay [5] stood at 1600 µg/mL (≈ 4580 µM); in assay [6] it was 12.5 µg/mL (≈ 35.8 µM).
On to `O=c1oc2ccccc2cc1C1=NNC(c2ccc(-c3ccccc3)c(-c3ccccc3)c2)C1` (stereo not drawn), for which the MIC in [11] and in assay [12] was more than 70 µg/mL throughout.
Regarding `COc1ccc2oc(=O)cc(C3NNC(=O)N3)c2c1` (stereo not drawn), the MIC in [19], in [20] and in assay [21] was 0.8 µg/mL (≈ 3.06 µM) in each case.
As for `COc1ccc2c(C3NNC(=O)N3)cc(=O)oc2c1` (stereo not drawn), the MIC in assay [19] turned out to be 0.8 µg/mL (≈ 3.06 µM); in assay [20] it was 3.12 µg/mL (≈ 11.9 µM); in assay [21] it was 1.6 µg/mL (≈ 6.12 µM).
As to `O=C(COc1cc(=O)oc2ccccc12)NC1CCCCCC1`, the “inhibition zone (IZ)” value in assay [16] is on record as 10 mm; in [17] it was 11 mm.
Regarding `Cc1cc(=O)oc2cc(OC(=O)CNC3N=C(c4ccc(F)cc4)C=C(c4ccc(O)cc4)S3)c([N+](=O)[O-])cc12` (stereo not drawn), the MIC in [3] and in assay [4] was 250 µg/mL (≈ 445 µM) throughout.
Take `O=c1oc2ccccc2cc1C1=NNC(c2ccc(F)cc2)C1` (stereo not drawn): the MIC in assay [11] and in [12] was more than 70 µg/mL each time.
Consider `Cc1cc(OCc2cn(Cc3ccc(Cl)cc3)nn2)cc2oc(=O)ccc12`, for which the minimal inhibitory concentration (MIC) in assay [13], in [14] and in assay [15] was 2 µg/mL (≈ 5.24 µM) throughout.
